Active and inactive are the calls of the source. The rule behind the calls is not given here.
How the values were obtained:
[1] = Drug accumulation in tumor to muscle of BALB/c mouse implanted with mouse 4T1 cells at 0.5 mg/kg, iv measured at 4 to 168 hrs; assay type: ADME, organism-based; details: in vivo, time 4-168 hrs
[2] = Drug uptake in human NCI-H226 cells assessed as increase in red fluorescence intensity at 5 uM incubated for 30 mins by CY7 staining based microscopic analysis; assay type: ADME, cell-based; details: nci-h226, 0.5 h
[3] = Antioxidant activity of compound in presence of RSS; assay type: functional
[4] = Antioxidant activity of compound in presence of Ca2+; assay type: functional
[5] = Antioxidant activity of compound in presence of ClO-; assay type: functional
[6] = Drug accumulation in BALB/c mouse tumor implanted with mouse 4T1 cells assessed as increase in fluorescence intensity at 0.5 mg/kg, iv measured at 48 hrs by imaging based analysis; assay type: ADME, organism-based, Neoplasm; details: in vivo
[7] = Cytotoxicity against human Primary lung fibroblast assessed as decrease in cell viability up to 5 uM incubated for 24 hrs by CCK-8 assay; assay type: toxicity, cell-based
[8] = Cytotoxicity against human Primary lung fibroblast assessed as decrease in cell viability up to 10 uM incubated for 24 hrs by CCK-8 assay; assay type: toxicity, cell-based
[9] = Acute toxicity in BALB/c mouse implanted with mouse 4T1 cells at 5 mg/kg, iv measured for 11 days; assay type: organism-based; details: in vivo, 264 h, time 11 day
[10] = Toxicity in BALB/c mouse implanted with mouse 4T1 cells assessed as heart damage at 5 mg/kg, iv measured for 11 days by H and E staining based analysis; assay type: organism-based; details: in vivo, 264 h, time 11 day
NCI-H226 [11] = test: Induction of ROS production in human NCI-H226 cells at 5 uM incubated for 24 hrs by flow cytometry analysis; assay type: functional, cell-based
NCI-H226 [12] = test: Induction of apoptosis in human NCI-H226 cells assessed as early apoptotic cells at 5 uM incubated for 48 hrs by Annexin V-FITC/PI staining based flow cytometry (reference value: 2.93 %); assay type: functional
NCI-H226 [13] = test: Induction of apoptosis in human NCI-H226 cells assessed as necrotic cells at 5 uM incubated for 48 hrs by Annexin V-FITC/PI staining based flow cytometry (reference value: 0.048 %); assay type: functional
[14] = Toxicity in BALB/c mouse implanted with patient-derived Squamous carcinoma cell line assessed as change in body weight at 0.5 mg/kg, iv measured for 5 days; assay type: organism-based; details: in vivo, 120 h, time 5 day

In the case of CCCN1/C(=C/C=C2\CCCC(/C=C/C3=[N+](Cc4ccc(C(=O)O)cc4)c4ccccc4C3(C)C)=C2Cl)C(C)(C)c2ccccc21.[Br-], the Drug uptake [1] is reported as “Active”, the Drug uptake [2] is reported as “Active” and the Activity [3] is reported as “Active”. The Activity [4] was “Active”, the Activity [5] was “Active” and the Drug uptake [6] was “Active”. For the same compound, the Activity [7] was “Non-toxic”, the Activity [8] was “Non-toxic” and the Activity [9] was “Non-toxic”. The Activity [10] was “Non-toxic”, the Activity (NCI-H226 [11]) was “Active” and the Activity (NCI-H226 [12]) was 0.82%. For the same compound, the Activity (NCI-H226 [13]) was 58.9% and the Activity [14] was “Non-toxic”.

— ChEMBL document CHEMBL6134863, “Novel Mitochondria-Targeted Asymmetric Heptamethine Cyanine Dye for Cancer Targeted NIR Imaging and Potent Necrosis and Senescence Induction with Prolonged Retention” (J Med Chem, 2025)
